Values quoted from earlier work in patent US20240316044A1, “GRANULATE COMPOSITION COMPRISING NILOTINIB” (HELM AG, priority 2021, published 2024).
Counter-ions that a name gives are not always drawn.

For `Cc1cn(-c2cc(NC(=O)c3ccc(C)c(Nc4nccc(-c5cccnc5)n4)c3)cc(C(F)(F)F)c2)cn1` [Anhydrous Nilotinib hydrochloride, 4-methyl-N-[3-(4-methyl-1H-imidazol-1-yl)-5-(trifluoromethyl)phenyl]-3-{[4-(pyridin-3-yl)pyrimidin-2-yl]amino} benzamide], which “BCS class (low/moderate aqueous solubility and low permeability)” value is on record?
The value was “Class IV”.
